Measured values taken from ChEMBL document CHEMBL3997783, “Synthesis and anti-acute myeloid leukemia activity of C-14 modified parthenolide derivatives” (Eur J Med Chem, 2017).

Test system: KG-1a
Assay: Cytotoxicity against human KG1a cells assessed as decrease in cell proliferation after 48 hrs by MTT assay
Format: functional, cell-based
Conditions: not given

SMILES | IC50 [µM]
C=C1C(=O)O[C@H]2[C@H]1CC/C(COC(=O)/C=C/C)=C\CC[C@@]1(C)O[C@@H]21 | 5.1
C=C1C(=O)O[C@H]2[C@H]1CC/C(COCc1ccccc1)=C\CC[C@@]1(C)O[C@@H]21 | 4.8
C=C1C(=O)O[C@H]2[C@H]1CC/C(C(=O)N1CCNCC1)=C\CC[C@@]1(C)O[C@@H]21 | > 50
C=C1C(=O)O[C@H]2[C@H]1CC/C(C(=O)N1CCN(C(=O)/C3=C/CC[C@@]4(C)O[C@H]4[C@H]4OC(=O)C(=C)[C@@H]4CC3)CC1)=C\CC[C@@]1(C)O[C@@H]21 | > 50
C=C1C(=O)O[C@H]2[C@H]1CC/C(COC(=O)c1ccccc1C#N)=C\CC[C@@]1(C)O[C@@H]21 | 3.3
C=C1C(=O)O[C@H]2[C@H]1CC/C(C(=O)N1CCCC1)=C\CC[C@@]1(C)O[C@@H]21 | 1.8
C=C1C(=O)O[C@@H]2C3O[C@]3(C)CC/C=C(\C)CC[C@@H]12 (some centres not stated) | 3.5
C=C1C(=O)O[C@H]2[C@H]1CC/C(COC(=O)c1ccc(C#N)cc1)=C\CC[C@@]1(C)O[C@@H]21 | 6.7
C=C1C(=O)O[C@H]2[C@H]1CC/C(COCc1ccc(OC)cc1)=C\CC[C@@]1(C)O[C@@H]21 | 1.1
C=C1C(=O)O[C@H]2[C@H]1CC/C(COC(=O)C1CCCCC1)=C\CC[C@@]1(C)O[C@@H]21 | 8.6
C=C1C(=O)O[C@H]2[C@H]1CC/C(C(=O)OC)=C\CC[C@@]1(C)O[C@@H]21 | 5.4
C=C1C(=O)O[C@H]2[C@H]1CC/C(C(=O)OCc1ccccc1)=C\CC[C@@]1(C)O[C@@H]21 | 3.3
C=C1C(=O)O[C@H]2[C@H]1CC/C(COC)=C\CC[C@@]1(C)O[C@@H]21 | 2.4
C=C1C(=O)O[C@H]2[C@H]1CC/C(COC(=O)c1ccccc1)=C\CC[C@@]1(C)O[C@@H]21 | 3.3
C=C1C(=O)O[C@H]2[C@H]1CC/C(C=O)=C\CC[C@@]1(C)O[C@@H]21 | 6.3
C=C1C(=O)O[C@H]2[C@H]1CC/C(COC(=O)/C=C/c1ccccc1)=C\CC[C@@]1(C)O[C@@H]21 | 0.4
C=C1C(=O)O[C@H]2[C@H]1CC/C(C(=O)OCc1ccc(C(F)(F)F)cc1)=C\CC[C@@]1(C)O[C@@H]21 | 2
C=C1C(=O)O[C@H]2[C@H]1CC/C(C(=O)N1CCC(c3ccccc3)CC1)=C\CC[C@@]1(C)O[C@@H]21 | 2.2

Test system: HL-60
Assay: Cytotoxicity against human HL60 cells assessed as decrease in cell proliferation after 48 hrs by MTT assay
Format: functional, cell-based
Conditions: HL-60, 48 h

SMILES | IC50 [µM]
C=C1C(=O)O[C@H]2[C@H]1CC/C(COC(=O)/C=C/C)=C\CC[C@@]1(C)O[C@@H]21 | 4.6
C=C1C(=O)O[C@H]2[C@H]1CC/C(COCc1ccccc1)=C\CC[C@@]1(C)O[C@@H]21 | 3.5
C=C1C(=O)O[C@H]2[C@H]1CC/C(C(=O)N1CCNCC1)=C\CC[C@@]1(C)O[C@@H]21 | > 50
C=C1C(=O)O[C@H]2[C@H]1CC/C(C(=O)N1CCN(C(=O)/C3=C/CC[C@@]4(C)O[C@H]4[C@H]4OC(=O)C(=C)[C@@H]4CC3)CC1)=C\CC[C@@]1(C)O[C@@H]21 | > 50
C=C1C(=O)O[C@H]2[C@H]1CC/C(COC(=O)c1ccccc1C#N)=C\CC[C@@]1(C)O[C@@H]21 | 1.2
C=C1C(=O)O[C@H]2[C@H]1CC/C(C(=O)N1CCCC1)=C\CC[C@@]1(C)O[C@@H]21 | 4
C=C1C(=O)O[C@@H]2C3O[C@]3(C)CC/C=C(\C)CC[C@@H]12 (some centres not stated) | 4.2
C=C1C(=O)O[C@H]2[C@H]1CC/C(COC(=O)c1ccc(C#N)cc1)=C\CC[C@@]1(C)O[C@@H]21 | 1.7
C=C1C(=O)O[C@H]2[C@H]1CC/C(COCc1ccc(OC)cc1)=C\CC[C@@]1(C)O[C@@H]21 | 2.7
C=C1C(=O)O[C@H]2[C@H]1CC/C(COC(=O)C1CCCCC1)=C\CC[C@@]1(C)O[C@@H]21 | 6.7
C=C1C(=O)O[C@H]2[C@H]1CC/C(C(=O)OC)=C\CC[C@@]1(C)O[C@@H]21 | 4.9
C=C1C(=O)O[C@H]2[C@H]1CC/C(C(=O)OCc1ccccc1)=C\CC[C@@]1(C)O[C@@H]21 | 2.2
C=C1C(=O)O[C@H]2[C@H]1CC/C(COC)=C\CC[C@@]1(C)O[C@@H]21 | 7.7
C=C1C(=O)O[C@H]2[C@H]1CC/C(COC(=O)c1ccccc1)=C\CC[C@@]1(C)O[C@@H]21 | 2.4
C=C1C(=O)O[C@H]2[C@H]1CC/C(C=O)=C\CC[C@@]1(C)O[C@@H]21 | 9.9
C=C1C(=O)O[C@H]2[C@H]1CC/C(COC(=O)/C=C/c1ccccc1)=C\CC[C@@]1(C)O[C@@H]21 | 1.1
C=C1C(=O)O[C@H]2[C@H]1CC/C(C(=O)OCc1ccc(C(F)(F)F)cc1)=C\CC[C@@]1(C)O[C@@H]21 | 1
C=C1C(=O)O[C@H]2[C@H]1CC/C(C(=O)N1CCC(c3ccccc3)CC1)=C\CC[C@@]1(C)O[C@@H]21 | 2.2

Test system: KG-1a
Assay: Induction of apoptosis in human KG1a cells assessed as early apoptotic cells at 10 uM after 16 hrs by annexin V-FITC/propidium iodide staining-based flow cytometric method (reference value: 0.113%)
Format: functional
Conditions: not given

SMILES | Activity [%]
C=C1C(=O)O[C@@H]2C3O[C@]3(C)CC/C=C(\C)CC[C@@H]12 (some centres not stated) | 0.413
C=C1C(=O)O[C@H]2[C@H]1CC/C(COC(=O)/C=C/c1ccccc1)=C\CC[C@@]1(C)O[C@@H]21 | 0.381

Test system: KG-1a
Assay: Induction of apoptosis in human KG1a cells assessed as late apoptotic cells at 10 uM after 16 hrs by annexin V-FITC/propidium iodide staining-based flow cytometric method (reference value: 1.01%)
Format: functional
Conditions: not given

SMILES | Activity [%]
C=C1C(=O)O[C@@H]2C3O[C@]3(C)CC/C=C(\C)CC[C@@H]12 (some centres not stated) | 4.08
C=C1C(=O)O[C@H]2[C@H]1CC/C(COC(=O)/C=C/c1ccccc1)=C\CC[C@@]1(C)O[C@@H]21 | 22.7

Test system: KG-1a
Assay: Induction of apoptosis in human KG1a cells assessed as necrotic cells at 10 uM after 16 hrs by annexin V-FITC/propidium iodide staining-based flow cytometric method (reference value: 0.170%)
Format: functional
Conditions: not given

SMILES | Activity [%]
C=C1C(=O)O[C@@H]2C3O[C@]3(C)CC/C=C(\C)CC[C@@H]12 (some centres not stated) | 0.327
C=C1C(=O)O[C@H]2[C@H]1CC/C(COC(=O)/C=C/c1ccccc1)=C\CC[C@@]1(C)O[C@@H]21 | 1.37

Test system: KG-1a
Assay: Induction of apoptosis in human KG1a cells assessed as viable cells at 10 uM after 16 hrs by annexin V-FITC/propidium iodide staining-based flow cytometric method (reference value: 98.7%)
Format: functional
Conditions: read-out: Activity

SMILES | viability at 10 µM [%]
C=C1C(=O)O[C@@H]2C3O[C@]3(C)CC/C=C(\C)CC[C@@H]12 (some centres not stated) | 95.2
C=C1C(=O)O[C@H]2[C@H]1CC/C(COC(=O)/C=C/c1ccccc1)=C\CC[C@@]1(C)O[C@@H]21 | 75.6

Test system: KG-1a
Assay: Induction of apoptosis in human KG1a cells assessed as early apoptotic cells at 20 uM after 16 hrs by annexin V-FITC/propidium iodide staining-based flow cytometric method (reference value: 0.113%)
Format: functional
Conditions: not given

SMILES | Activity [%]
C=C1C(=O)O[C@@H]2C3O[C@]3(C)CC/C=C(\C)CC[C@@H]12 (some centres not stated) | 0.336
C=C1C(=O)O[C@H]2[C@H]1CC/C(COC(=O)/C=C/c1ccccc1)=C\CC[C@@]1(C)O[C@@H]21 | 0.087

Test system: KG-1a
Assay: Induction of apoptosis in human KG1a cells assessed as late apoptotic cells at 20 uM after 16 hrs by annexin V-FITC/propidium iodide staining-based flow cytometric method (reference value: 1.01%)
Format: functional
Conditions: not given

SMILES | Activity [%]
C=C1C(=O)O[C@@H]2C3O[C@]3(C)CC/C=C(\C)CC[C@@H]12 (some centres not stated) | 13.1
C=C1C(=O)O[C@H]2[C@H]1CC/C(COC(=O)/C=C/c1ccccc1)=C\CC[C@@]1(C)O[C@@H]21 | 46.7

Test system: KG-1a
Assay: Induction of apoptosis in human KG1a cells assessed as necrotic cells at 20 uM after 16 hrs by annexin V-FITC/propidium iodide staining-based flow cytometric method (reference value: 0.170%)
Format: functional
Conditions: not given

SMILES | Activity [%]
C=C1C(=O)O[C@@H]2C3O[C@]3(C)CC/C=C(\C)CC[C@@H]12 (some centres not stated) | 1.81
C=C1C(=O)O[C@H]2[C@H]1CC/C(COC(=O)/C=C/c1ccccc1)=C\CC[C@@]1(C)O[C@@H]21 | 1.61

Test system: KG-1a
Assay: Induction of apoptosis in human KG1a cells assessed as viable cells at 20 uM after 16 hrs by annexin V-FITC/propidium iodide staining-based flow cytometric method (reference value: 98.7%)
Format: functional
Conditions: read-out: Activity

SMILES | viability at 20 µM [%]
C=C1C(=O)O[C@@H]2C3O[C@]3(C)CC/C=C(\C)CC[C@@H]12 (some centres not stated) | 84.7
C=C1C(=O)O[C@H]2[C@H]1CC/C(COC(=O)/C=C/c1ccccc1)=C\CC[C@@]1(C)O[C@@H]21 | 51.6
